Measured values: patent US20190038587A1, “DNA Methylation Landscapes of Post-Traumatic Stress Disorder (PTSD) Susceptibility and Resilience and Novel Therapeutics of PTSD Derived Thereof” (priority 2016, published 2019)

Key:
long term potentiation = conditions: literature; cited from earlier work
[1] = test system: susceptible rats (PTSD-like); test: Rat PTSD model (predator scent, incubation of fear): freezing behavior in open field after third reminder; type: in vivo, Sprague-Dawley rats
Method: Adult male Sprague-Dawley rats (250-270 gr; Harlan, Rehovot, Israel) were used and housed under conditions of constant temperature (22° C.) and 50% humidity, with a 12-h light-12-h dark cycle. The rats were allowed to habituate to the animal house for 7 days (acclimation). They were housed three per cage, two experimental rats together with a third companion rat. The same three rats remained together until the end of the study. Food and water were provided ad libitum. All experiments were performed between 08:00 and 14:00 in daylight. All animal procedures were approved by the Bar-Ilan University Animal Care Committee and were carried out in accordance with the NIH Guide for the Care and Use of Laboratory Animals.
The model used in this research is based on Kesner et al., 2009^32. This model consists of several stages encompassing […], detailed below and depicted in FIG. 1. The animals are analyzed according to three clinically-relevant clusters of symptoms: manifestation of freezing behavior when (a) situated alone in an open field paradigm (re-experiencing), (b) situated with a habituated companion (social interaction) and (c) after exposure to a hyperarousal event^33. The range of each measured behavioral procedure was determined for all animals after the base-line (week 3). The data collected at baseline was analyzed and the explore procedure was applied using SPSS 11 to define the range of the population. The upper and lower levels of this range were treated as ‘normal baseline’ and alterations from this range were used to define PTSD-like behavior (susceptible).
Each experimental or naive rat was habituated for 7 days to their home cage (the first week of the habituation). For the first stage of the experiment each experimental or naive rat was habituated for 7 days to an open field apparatus together with a companion rat from their home cage, 5 min per day for 7 days (the second week of the experiment). The open field apparatus was a 90×90×30 cm Plexiglas box, which was placed under a camera. The video and computer equipment were situated in a separate room where all video and observation analyses were performed.
After 14 days (Day 1) of habituation, baseline freezing levels of experimental and naive rats were measured prior to stress exposure. Behavioral parameters and measurements are described below (Behavioral Measurements section).
One week later (Day 7), experimental rats were exposed to stress, i.e. predator scent. Individual rats were placed for 30 min in a clean plastic cylinder (diameter: 30 cm, height: 33 cm) containing 125 ml of well-soiled cat litter, used by a cat during the 24 h prior to the experiment. After exposure to stress, each rat was transferred to the open field, and three behavioral parameters were measured (as described in the Behavioral Measurements section below). The cylinder was cleaned between testing of each rat. Temperature and humidity conditions in the stress exposure area were identical to those in the housing cages and open field. The companion rats were not exposed to stress, and were housed in separate cages in a separate housing area during all experiments. The same cat was used for the litter introduced during initial exposure.
One week later (Day 14), rats were re-exposed for 30 minutes to litter with the same texture, but without the cat scent. Behavioral parameters were subsequently tested (as described below).
Three weeks later (Day 35), rats were again exposed for 30 min to litter with the same texture and without cat scent. Behavioral parameters were subsequently tested (as described below). Behavioral data for this testing stage were analyzed according to the division criteria detailed below. Based on the obtained results, experimental rats were defined as either susceptible or resilient.
After exposure to cat litter, each rat was placed in the open field for measurement of PTSD-like behavior. […]

[2] = test system: DNA methylation profile in the NAc; test: Capture bisulfite sequencing and DNA methylation mapping of nucleus accumbens after SAM treatment; type: in vivo, Sprague-Dawley rats
Method: (§1) Brains were removed immediately after exposure to litter with cat scent immediately after Re3. Each brain was placed in a Perspex brain matrix and sliced into 1.0 mm segments. The NAc was punched out using a micro dissecting needle of 13-14 G. Brain tissue was frozen at −70° C. until DNA and RNA extraction.
Genomic DNA was extracted using All Prep DNA/RNA Micro Kit, Qiagen (Hilden, Germany)
The SeqCap Epi Enrichment System was used for target bisulfite sequencing of promoters and enhancers in the rat genome. The rat (rn4) target probes were custom designed by utilizing H3K4me1 and H3K4me3 (indicating enhancers and promoters respectively) signals from mouse samples as there is no currently available ChIP data of H3K4me1 and H3K4me3 with respect to the rat species. PuttivH3K4me1 and me3 were selected by mapping and aligning genomic fragments from mouse to the rat and retaining any fragments that share a high similarity and the subsequent associated signals. A total of 53374 target probes have been designed spanning 48072248 base pairs of sequence with a mean probe size of 900 bp. Biotinylated target probes were designed for both strands of bisulfite converted genomic DNA. Bisulfite treated genomic DNA is ligated to methylated NGS adaptors, hybridized to the biotinylated oligonucleotide probes which is followed by a series of washes of off-target DNA sequences and unbound DNA. The resulting isolated specific DNA then undergoes PCR amplification for downstream sequencing on Illumina Hiseq 2000 sequencer. Capture and hybridization is performed as a service for fee by ICRM in Montreal licensed by Roche/Nimblegen. The following bioinformatics workflow is used in the lab. Quality control is done using FastQC to assess sequencing scores and other quality metrics. If necessary, trimming of raw file is performed using Trimmomatic to remove low scoring sequencing results and/or adapter contents. Sequences are aligned to rn4 rat reference genome using Bsmap v2.89. A typical alignment rate of 90%-95% is achieved (30× coverage). The resulting sequencing alignment file (SAM) is converted to binary alignment format (BAM) for downstream analysis and filtering. BAM files are split, merged, and sorted by strand for additional downstream filtering and analysis. Duplicate reads within the BAM files are removed via Picard Tools (v1.93, BROAD institute) strand-specifically and the separate BAM files are merged back together and examined by Bamtools to assess whether the sequences are properly mapped to genome, whether both paired end reads exist (for paired end sequencing), and whether paired end reads are properly paired to each other (for paired end sequencing). Using the final BAM file, methylation ratios and coverage is recovered by provided scripts within Bsmap as well as methylation context. Annotation of genomic locations is performed by HOMER. Computation of differential methylation sites and tiled windows of differentially methylated regions was performed using a logistic regression method with the Methylkit R package in Bioconductor1. FDR adjusted P value significance threshold is held at <0.2.
NAcs were isolated from the animals (n=4-7 per group) following the third reminder and DNA and RNA were extracted as described in the methods. DNA was bisulfite converted, enriched using capture arrays for all predicted promoters and enhancers in the rat genome and was then subjected to next generation sequencing. […]

RORA mRNA = RORA mRNA expression in nucleus accumbens following the third reminder; type: in vivo, Sprague-Dawley rats; conditions: NAc following Re3; SAM vs saline; FIG. 6C
Method: as §1
The retinoic biosynthesis and degradation pathway was also enriched with differentially methylated genes. In the susceptible group there was an enrichment in downstream targets of the RAR-Related Orphan Receptor A (RORA), however the impact on level of activity of this pathway could not be derived from this analysis (FIG. 6B). Therefore, the levels of RORA mRNA expression in the different groups was first determined. RORA mRNA expression levels were higher in either control or resilient animals treated with either saline or SAM than in susceptible animals (*p<0.05, *p<0.05 and **p<0.01 respectively) (FIG. 6C), consistent with the possibility that this gene is involved in the pathology of PTSD. […] Therefore, it was hypothesized that the RORA pathway is involved in the hyperarousal behavior which is resistant to SAM's treatment and characteristic of the susceptible PTSD group. The correlation between the mRNA expression of RORA and the three behavioral tests was first measured; as hypothesized, only the hyperarousal behavior was correlated with the mRNA expression of RORA (FIG. 6D). […]

[3] = test system: Beta estradiol downstream pathway; test: Pathway analysis of upstream regulators of differentially methylated genes; set-up: species or system Sprague-Dawley rats; conditions: susceptible animals treated with SAM relative to susceptible treated with saline; FIG. 6B
Text: If DNA methylation plays a causal role in PTSD, comparative analysis of upstream regulators of genes whose DNA methylation is different in control, susceptible, resilient and SAM treated animals could reveal important putative new pathways and networks involved in PTSD molecular pathology that are candidates for therapeutic intervention (FIG. 6A). […] Other up-regulators of differentially methylated genes are presented in the Heatmap. These pathways are relevant to anxiety and memory pathways such as: sex hormones, glucocorticoid and different cytokines.
In reference to FIG. 6, “A” is coloring representing the p value of each group for the different “upstream-regulator” regulated pathways. Light blue represents low activation and dark blue represents high activation of the pathway. Grey represents pathways that didn't change. Yellow lines and boxes represent sex hormone dependent pathways, blue lines and boxes represent cytokine regulated pathways, pink lines and boxes represent glucocorticoids regulated pathways and green lines and boxes represent retinoic acid (vitamin A) regulated pathways. “B” is circular heat maps representing the different pathways that are influenced by a specific “upstream-upregulator” and are altered in PTSD susceptible and resistant animals. […]

[4] = susceptible-SAM vs susceptible-saline rats, threshold >10, Q value 0.2, FIG. 4A

Row | SMILES | effect on long term potentiation (long term potentiation) | freezing behavior during the 'exploration' test ([1]; Embodiment 2, susceptible rats, SAM 25 mg/kg i.p. 24 h and 1 h before Re-3, vs susceptible-saline, FIG. 3A) | freezing behavior during the 'social interaction' test ([1]; Embodiment 2, susceptible rats, SAM 25 mg/kg i.p. 24 h and 1 h before Re-3, vs susceptible-saline, FIG. 3B) | freezing behavior during the 'hyperarousal' test ([1]; Embodiment 2, susceptible rats, SAM 25 mg/kg i.p. 24 h and 1 h before Re-3, vs susceptible-saline, FIG. 3C) | freezing behavior during the 'exploration' test ([1]; Embodiment 4, susceptible rats, SAM 25 mg/kg and/or retinoic acid 2 mg/kg i.p. 24 h and 1 h before Re-3, vs susceptible-RA and susceptible-saline, FIG. 7A) | freezing behavior during the 'social interaction' test ([1]; Embodiment 4, susceptible rats, SAM 25 mg/kg and/or retinoic acid 2 mg/kg i.p. 24 h and 1 h before Re-3, vs susceptible-RA and susceptible-saline, FIG. 7B) | fold change in freezing behavior in 'exploration' and 'social interaction' tests (from Re-2 to Re-3) ([1]; susceptible-treated rats, FIG. 3D-G) | fold change in freezing behavior in the 'hyperarousal' test (from Re-2 to Re-3) ([1]; susceptible-treated rats, FIG. 3H-I) | CGs sites differentially methylated in the susceptible animals and reversed by the SAM treatment ([2]; FIG. 4A-B) | CG sites differentially methylated in both the susceptible and the resilient rats affected by SAM ([2]; FIG. 4C-D) | fraction of total susceptible sites reversed by SAM treatment ([2]; sites altered in susceptible rats relative to controls) | CGs sites that were de-methylated [2, 4] | CGs sites that were hyper-methylated [2, 4] | level of expression of RORA (mRNA) (RORA mRNA) | state of activity of Beta estradiol downstream pathway [3]
1 | Nc1ncn([C@H]2C[C@H](O)[C@@H](CO)O2)c(=O)n1 [5-aza-2-deoxycytidine] | inhibited long term potentiation |  |  |  |  |  |  |  |  |  |  |  |  |  | 
2 | C[S+](CC[C@H](N)C(=O)O)C[C@H]1O[C@@H](n2cnc3c(N)ncnc32)[C@H](O)[C@@H]1O (stereo partly drawn) [SAM, S-adenosylmethionine] |  | significantly decreased | significantly decreased | no difference in freezing behavior | significantly decreased | significantly decreased | effective in reducing these behaviors | ineffective in changing freezing behavior | 140 CGs sites | 38 CG sites | 30% | 599 CGs sites | 363 CGs sites | no effect | inhibited
